Molecular target: Histone deacetylase 4 (Homo sapiens, UniProt P56524)
Experiment: Biochemical HDAC-4 Assay
Procedure: 5 μl of each solution of 1:20 diluted compound from above is transferred to a clear bottomed, black, 384-well assay plate using the Bravo or the Janus (384-well MDT head from Perkin Elmer). Using a 16-channel Matrix multi-channel pipette, 35 μl of the working solution of HDAC4 catalytic domain enzyme (0.2 μg/ml in assay buffer) is transferred to the assay plate. The assay is then started by adding 10 μl of 5× (50 μM) substrate to the assay plates using either the Bravo, Janus or 16-channel Matrix multi-channel pipette. The assay plate is then shaken for two minutes on an orbital shaker at 900 rpm (rotations per minute). Next the plate is incubated for 15 minutes at 37° C. The reaction is stopped by adding 25 μl of 3× (30 μM) developer/stop solution to the assay plates using either the Bravo, Janus or a 16-channel Matrix multi-channel pipette. Assay plates are then shaken for 5 minutes on an orbital shaker at 1200 rpm. Next, the assay plates are incubated at 37° C. for 1 hour in a tissue culture incubator. Finally, the fluorescence is measured (Excitation: 355 nm, Emission: 460 nm) using PerkinElmer EnVision in top read mode.

Chain of Histone deacetylase 4 (P56524 whole entry): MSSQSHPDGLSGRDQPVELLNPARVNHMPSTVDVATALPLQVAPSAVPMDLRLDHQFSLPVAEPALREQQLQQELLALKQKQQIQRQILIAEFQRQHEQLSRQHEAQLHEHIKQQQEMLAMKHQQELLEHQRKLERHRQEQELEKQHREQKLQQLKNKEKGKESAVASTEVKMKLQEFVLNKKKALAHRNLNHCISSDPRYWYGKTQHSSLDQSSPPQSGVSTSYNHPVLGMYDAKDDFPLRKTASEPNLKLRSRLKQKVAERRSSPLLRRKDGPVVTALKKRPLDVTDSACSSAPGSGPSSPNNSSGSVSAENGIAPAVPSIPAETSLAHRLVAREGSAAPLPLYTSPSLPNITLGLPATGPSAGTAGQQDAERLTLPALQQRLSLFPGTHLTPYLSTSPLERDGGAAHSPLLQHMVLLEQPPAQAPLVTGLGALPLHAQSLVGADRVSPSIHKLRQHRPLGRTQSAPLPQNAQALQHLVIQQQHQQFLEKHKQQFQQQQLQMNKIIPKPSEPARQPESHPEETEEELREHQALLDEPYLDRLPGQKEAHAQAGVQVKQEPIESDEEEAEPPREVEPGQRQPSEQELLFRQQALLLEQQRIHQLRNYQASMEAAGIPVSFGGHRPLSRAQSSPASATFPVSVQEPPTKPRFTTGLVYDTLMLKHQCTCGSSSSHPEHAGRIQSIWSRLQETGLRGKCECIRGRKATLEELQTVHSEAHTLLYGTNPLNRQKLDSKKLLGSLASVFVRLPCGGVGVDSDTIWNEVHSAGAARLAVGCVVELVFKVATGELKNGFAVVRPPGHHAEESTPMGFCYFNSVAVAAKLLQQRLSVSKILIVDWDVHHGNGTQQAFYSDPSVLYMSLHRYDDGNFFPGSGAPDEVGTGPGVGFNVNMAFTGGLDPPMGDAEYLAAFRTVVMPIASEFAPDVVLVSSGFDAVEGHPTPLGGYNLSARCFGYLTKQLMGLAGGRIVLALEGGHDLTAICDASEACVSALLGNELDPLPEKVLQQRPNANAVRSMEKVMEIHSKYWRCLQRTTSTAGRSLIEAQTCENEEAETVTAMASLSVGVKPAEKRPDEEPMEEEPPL

SMILES: O=C(NO)C1C=CCC1c1ccccc1 (stereo unspecified) [US10106535, Example 30]
- IC50: 12.3 µM

Reference: BindingDB's records for patent US10106535 (Chdi Foundation, 2018)
